Data from ChEMBL document CHEMBL1121623, “Thrombin inhibitors. 3. Carboxyl-containing amide derivatives of N alpha-substituted L-arginine” (J Med Chem, 1980).

What was measured:
Prothrombin [1] = biological target: T1, Prothrombin (Bos taurus, UniProt P00735); assay: (§1) Concentration at which the clotting time was prolonged by twice that of the control by inhibiting thrombin; type: functional; settings: read-out: I50
Prothrombin [2] = biological target: T1, Prothrombin; assay: as §1; settings: read-out: I50

Compound	IC50 (Prothrombin [1]) [µM]	IC50 (Prothrombin [2]) [µM]
COCCN(CC(=O)O)C(=O)C(CCCN=C(N)N)NS(=O)(=O)c1ccc2c(c1)-c1ccccc1C2 (configuration not stated)	0.4	–
CC1CCN(C(=O)C(CCCN=C(N)N)NS(=O)(=O)c2cccc3c(N(C)C)cccc23)C(C(=O)O)C1 (configuration not stated)	–	4
COc1ccc2ccc(S(=O)(=O)NC(CCCN=C(N)N)C(=O)N3CCCCC3C(=O)O)cc2c1 (configuration not stated)	–	5
COc1cc2ccc(S(=O)(=O)NC(CCCN=C(N)N)C(=O)N(C)CC(=O)O)cc2cc1OC (configuration not stated)	–	> 100
CCCCN(CC(=O)O)C(=O)C(CCCN=C(N)N)NS(=O)(=O)c1ccc2ccc(C)cc2c1 (configuration not stated)	–	0.3
COc1cc2ccc(S(=O)(=O)NC(CCCN=C(N)N)C(=O)N(CC(=O)O)CC(C)C)cc2cc1OC (configuration not stated)	–	2
COCCN(CC(=O)O)C(=O)C(CCCN=C(N)N)NS(=O)(=O)c1cccc2c(N(C)C)cccc12 (configuration not stated)	–	5
Cc1ccc2ccc(S(=O)(=O)NC(CCCN=C(N)N)C(=O)N(CC(=O)O)CC3CCCO3)cc2c1 (configuration not stated)	–	0.2
CC(C)C1CCN(C(=O)C(CCCN=C(N)N)NS(=O)(=O)c2ccc3cc(Cl)ccc3c2)C(C(=O)O)C1 (configuration not stated)	–	0.5
COCCN(CC(=O)O)C(=O)C(CCCN=C(N)N)NS(=O)(=O)c1ccc2ccc(OC)cc2c1 (configuration not stated)	–	0.5
CCOc1cc2ccc(S(=O)(=O)NC(CCCN=C(N)N)C(=O)N(CCOC)CC(=O)O)cc2cc1OCC (configuration not stated)	–	15
COCCN(CC(=O)O)C(=O)C(CCCN=C(N)N)NS(=O)(=O)c1cccc2cc(C)c(C)cc12 (configuration not stated)	–	10
CC1CCN(C(=O)C(CCCN=C(N)N)NS(=O)(=O)c2cccc3ccccc23)C(C(=O)O)C1 (configuration not stated)	–	1
COCCN(CC(=O)O)C(=O)C(CCCN=C(N)N)NS(=O)(=O)c1ccc2cc(OC)c(OC)cc2c1 (configuration not stated)	–	0.3
COCCN(CC(=O)O)C(=O)C(CCCN=C(N)N)NS(=O)(=O)c1cccc2c1CCCC2 (configuration not stated)	10	–
COc1cc2ccc(S(=O)(=O)NC(CCCN=C(N)N)C(=O)N(CCc3ccccc3)CC(=O)O)cc2cc1OC (configuration not stated)	–	3
COc1cc2ccc(S(=O)(=O)NC(CCCN=C(N)N)C(=O)N(CC(=O)O)C3CCCCCC3)cc2cc1OC (configuration not stated)	–	15
CCCN(CC(=O)O)C(=O)C(CCCN=C(N)N)NS(=O)(=O)c1ccc2cc(OC)c(OC)cc2c1 (configuration not stated)	–	8
CCCCCCCCN(CC(=O)O)C(=O)C(CCCN=C(N)N)NS(=O)(=O)c1ccc2cc(OC)c(OC)cc2c1 (configuration not stated)	–	> 100
COc1ccc2cc(S(=O)(=O)NC(CCCN=C(N)N)C(=O)N3CCCCC3C(=O)O)ccc2c1 (configuration not stated)	–	100
COCCN(CC(=O)O)C(=O)C(CCCN=C(N)N)NS(=O)(=O)c1ccc2oc3ccccc3c2c1 (configuration not stated)	0.35	–
COc1cc2ccc(S(=O)(=O)NC(CCCN=C(N)N)C(=O)N(CC(=O)O)Cc3ccccc3)cc2cc1OC (configuration not stated)	–	2.5
CCSCCN(CC(=O)O)C(=O)C(CCCN=C(N)N)NS(=O)(=O)c1ccc2cc(OC)c(OC)cc2c1 (configuration not stated)	–	5
COCCN(CCC(=O)O)C(=O)C(CCCN=C(N)N)NS(=O)(=O)c1ccc2cc(OC)c(OC)cc2c1 (configuration not stated)	–	3.7
COc1ccc2ccc(S(=O)(=O)NC(CCCN=C(N)N)C(=O)N3CCCCCC3C(=O)O)cc2c1 (configuration not stated)	2.5	–
CCCCN(CC(=O)O)C(=O)C(CCCN=C(N)N)NS(=O)(=O)c1cccc2c1CCCC2 (configuration not stated)	20	–

Compound	IC50 (Prothrombin [1]) [µM]	IC50 (Prothrombin [2]) [µM]
CN(C)c1cccc2c(S(=O)(=O)NC(CCCN=C(N)N)C(=O)N(CC(=O)O)CC3CCCO3)cccc12 (configuration not stated)	–	2
CCCC1CCN(C(=O)C(CCCN=C(N)N)NS(=O)(=O)c2ccc3cc(OC)c(OC)cc3c2)C(C(=O)O)C1 (configuration not stated)	0.5	–
CCCCN(CC(=O)O)C(=O)C(CCCN=C(N)N)NS(=O)(=O)c1cc(OC)c2cc(OC)ccc2c1 (configuration not stated)	–	2
COCCN(CC(=O)O)C(=O)C(CCCN=C(N)N)NS(=O)(=O)c1ccc2sc3ccccc3c2c1 (configuration not stated)	0.45	–
CCCCN(CC(=O)O)C(=O)C(CCCN=C(N)N)NS(=O)(=O)c1cccc2c(N(C)C)cccc12 (configuration not stated)	–	4
COc1cc2ccc(S(=O)(=O)NC(CCCN=C(N)N)C(=O)N(CC(=O)O)C3CCCCC3)cc2cc1OC (configuration not stated)	–	5
COc1ccc2ccc(S(=O)(=O)NC(CCCN=C(N)N)C(=O)N(CC(=O)O)CC3CCCO3)cc2c1 (configuration not stated)	–	0.15
COCCCN(CC(=O)O)C(=O)C(CCCN=C(N)N)NS(=O)(=O)c1ccc2cc(OC)c(OC)cc2c1 (configuration not stated)	–	5
COc1cc2ccc(S(=O)(=O)NC(CCCN=C(N)N)C(=O)N(CC(=O)O)CC3CCCO3)cc2cc1OC (configuration not stated)	–	0.2
CCC1CCN(C(=O)C(CCCN=C(N)N)NS(=O)(=O)c2ccc3ccc(OC)cc3c2)C(C(=O)O)C1 (configuration not stated)	–	0.1
CCCCCN(CC(=O)O)C(=O)C(CCCN=C(N)N)NS(=O)(=O)c1ccc2cc(OC)c(OC)cc2c1 (configuration not stated)	–	1
Cc1ccc2cc(S(=O)(=O)NC(CCCN=C(N)N)C(=O)N3CCC(C(C)C)CC3C(=O)O)ccc2c1 (configuration not stated)	–	0.35
COc1cc2ccc(S(=O)(=O)NC(CCCN=C(N)N)C(=O)N3CCCC(C(=O)O)C3)cc2cc1OC (configuration not stated)	–	40
CC1CCN(C(=O)C(CCCN=C(N)N)NS(=O)(=O)c2cccc3c2CCCC3)C(C(=O)O)C1 (configuration not stated)	–	0.6
COCCN(CC(=O)O)C(=O)C(CCCN=C(N)N)NS(=O)(=O)c1cc(OC)c2cc(OC)ccc2c1 (configuration not stated)	–	4
Cc1cc2ccc(S(=O)(=O)NC(CCCN=C(N)N)C(=O)N(CC(=O)O)CC3CCCO3)cc2cc1C (configuration not stated)	–	3
Cc1ccc2ccc(S(=O)(=O)NC(CCCN=C(N)N)C(=O)N3CCC(C)CC3C(=O)O)cc2c1 (configuration not stated)	–	0.15
CCCCCCN(CC(=O)O)C(=O)C(CCCN=C(N)N)NS(=O)(=O)c1ccc2cc(OC)c(OC)cc2c1 (configuration not stated)	–	0.15
COCCN(CC(=O)O)C(=O)C(CCCN=C(N)N)NS(=O)(=O)c1ccc2ccc(C)cc2c1 (configuration not stated)	–	0.35
COc1ccc2ccc(S(=O)(=O)NC(CCCN=C(N)N)C(=O)N3CCC(C(C)C)CC3C(=O)O)cc2c1 (configuration not stated)	–	0.15
N=C(N)NCCCC(NS(=O)(=O)c1cccc2ccccc12)C(=O)N(CC(=O)O)CC1CCCO1 (configuration not stated)	–	30
COCCN(CC(=O)O)C(=O)C(CCCN=C(N)N)NS(=O)(=O)c1cccc2c(OC)cccc12 (configuration not stated)	–	2.5
CC1CCN(C(=O)C(CCCN=C(N)N)NS(=O)(=O)c2ccc3c(c2)-c2ccccc2C3)C(C(=O)O)C1 (configuration not stated)	–	0.1
CCCCN(CC(=O)O)C(=O)C(CCCN=C(N)N)NS(=O)(=O)c1cccc2c(OC)cccc12 (configuration not stated)	–	4
CCCCN(CC(=O)O)C(=O)C(CCCN=C(N)N)NS(=O)(=O)c1ccc2c(c1)CCCC2 (configuration not stated)	60	–
COc1ccc2cc(S(=O)(=O)NC(CCCN=C(N)N)C(=O)N3CCC(C)CC3C(=O)O)cc(OC)c2c1 (configuration not stated)	–	0.34

Compound	IC50 (Prothrombin [1]) [µM]	IC50 (Prothrombin [2]) [µM]
COc1cc2ccc(S(=O)(=O)NC(CCCN=C(N)N)C(=O)N3CCC(C)CC3C(=O)O)cc2cc1OC (configuration not stated)	–	0.4
CCCCN(CC(=O)O)C(=O)C(CCCN=C(N)N)NS(=O)(=O)c1ccc2ccccc2c1 (configuration not stated)	–	> 100
CCCCN(CC(=O)O)C(=O)C(CCCN=C(N)N)NS(=O)(=O)c1ccc2cc(OC)ccc2c1 (configuration not stated)	–	0.5
CC(C)C1CCN(C(=O)C(CCCN=C(N)N)NS(=O)(=O)c2ccc3ccccc3c2)C(C(=O)O)C1 (configuration not stated)	–	50
COCCN(CC(=O)O)C(=O)C(CCCN=C(N)N)NS(=O)(=O)c1ccc2c(c1)OCCO2 (configuration not stated)	32	–
CCCCN(CC(=O)O)C(=O)C(CCCN=C(N)N)NS(=O)(=O)c1ccc2ccc(OC)cc2c1 (configuration not stated)	–	0.5
CCCCN(CC(=O)O)C(=O)C(CCCN=C(N)N)NS(=O)(=O)c1ccc2oc3ccccc3c2c1 (configuration not stated)	0.3	–
CC1CCN(C(=O)C(CCCN=C(N)N)NS(=O)(=O)c2cccc3c2oc2ccccc23)C(C(=O)O)C1 (configuration not stated)	0.15	–
COc1cc2ccc(S(=O)(=O)NC(CCCN=C(N)N)C(=O)N3CCC(C(=O)O)CC3)cc2cc1OC (configuration not stated)	–	150
CCOc1cc2ccc(S(=O)(=O)NC(CCCN=C(N)N)C(=O)N3CCC(C)CC3C(=O)O)cc2cc1OCC (configuration not stated)	–	4
CCCCN(CC(=O)O)C(=O)C(CCCN=C(N)N)NS(=O)(=O)c1ccc2cc(OC)c(OC)cc2c1 (configuration not stated)	–	0.3
COCCN(CCCC(=O)O)C(=O)C(CCCN=C(N)N)NS(=O)(=O)c1ccc2cc(OC)c(OC)cc2c1 (configuration not stated)	–	40
COCCN(CC(=O)O)C(=O)C(CCCN=C(N)N)NS(=O)(=O)c1cccc2ccccc12 (configuration not stated)	–	30
COc1cc2ccc(S(=O)(=O)NC(CCCN=C(N)N)C(=O)N3C(C(=O)O)CCCC3C(=O)O)cc2cc1OC (configuration not stated)	–	> 100
CCCCCN(CC(=O)O)C(=O)C(CCCN=C(N)N)NS(=O)(=O)c1cccc2c1CCCC2 (configuration not stated)	100	–
COc1ccc2ccc(S(=O)(=O)NC(CCCN=C(N)N)C(=O)N3CCC(C)CC3C(=O)O)cc2c1 (configuration not stated)	–	0.15
CC1CCN(C(=O)C(CCCN=C(N)N)NS(=O)(=O)c2ccc3oc4ccccc4c3c2)C(C(=O)O)C1 (configuration not stated)	0.1	–
COc1cc2ccc(S(=O)(=O)NC(CCCN=C(N)N)C(=O)N3CCC(c4ccccc4)CC3C(=O)O)cc2cc1OC (configuration not stated)	12	–
CC1CCN(C(=O)C(CCCN=C(N)N)NS(=O)(=O)c2ccc3c(c2)Sc2ccccc2O3)C(C(=O)O)C1 (configuration not stated)	0.25	–
COCCN(CC(=O)O)C(=O)C(CCCN=C(N)N)NS(=O)(=O)c1ccc2c(c1)Sc1ccccc1O2 (configuration not stated)	0.35	–
COc1cc2ccc(S(=O)(=O)NC(CCCN=C(N)N)C(=O)N3Cc4ccccc4C3C(=O)O)cc2cc1OC (configuration not stated)	1.5	–
COCCN(C(=O)C(CCCN=C(N)N)NS(=O)(=O)c1ccc2cc(OC)c(OC)cc2c1)C(C)C(=O)O (configuration not stated)	–	5
COc1cc2ccc(S(=O)(=O)NC(CCCN=C(N)N)C(=O)N3CCCCC3C(=O)O)cc2cc1OC (configuration not stated)	–	4.5
COc1cc2ccc(S(=O)(=O)NC(CCCN=C(N)N)C(=O)N(CC(=O)O)CC3CCCCC3)cc2cc1OC (configuration not stated)	–	15
Cc1ccc2ccc(S(=O)(=O)NC(CCCN=C(N)N)C(=O)N3CCC(C(C)C)CC3C(=O)O)cc2c1 (configuration not stated)	–	0.1
